Three molecules from ChEMBL document CHEMBL3580539, “Discovery of small molecule inhibitors targeting the SUMOSIM interaction using a protein interface consensus approach” (Medchemcomm, 2014) can be followed below.

Each structure is given as a SMILES string.

The target of this experiment is Small ubiquitin-related modifier 2/3 (SUMO 2/3) (Homo sapiens, UniProt P61956+P55854). Kind of experiment: Binding affinity to His-tagged SUMO2/3 (unknown origin) expressed in Escherichia coli BL21 (DE3) measured over 120 secs by SPR analysis. (Surface plasmon resonance follows binding to a sensor surface in real time, without labels.)
As to `CC(NS(=O)(=O)c1ccc(Cl)c(Cl)c1)C(=O)NNC(=O)c1ccccc1O` (stereo not drawn), the Kd – broadly, the concentration at which binding is half-saturated – turned out to be 1.9 µM. That is a single-digit micromolar value.
The figure for `COCC(C)n1c(NCc2ccccn2)nc2ccccc2c1=O` (stereo not drawn) is 59 µM.
The figure for `C=CCNc1nc(NCc2ccccn2)nc2ccccc12` is 29 µM.
